Results on three compounds are retold here after ChEMBL document CHEMBL5696442, “Discovery of type II inhibitors of TGFβ-activated kinase 1 (TAK1) and mitogen-activated protein kinase kinase kinase kinase 2 (MAP4K2)” (J Med Chem, 2015).

Test [1] concerns the target T1, Eukaryotic elongation factor 2 kinase (Homo sapiens) (UniProt O00418).
T1 sequence (whole entry): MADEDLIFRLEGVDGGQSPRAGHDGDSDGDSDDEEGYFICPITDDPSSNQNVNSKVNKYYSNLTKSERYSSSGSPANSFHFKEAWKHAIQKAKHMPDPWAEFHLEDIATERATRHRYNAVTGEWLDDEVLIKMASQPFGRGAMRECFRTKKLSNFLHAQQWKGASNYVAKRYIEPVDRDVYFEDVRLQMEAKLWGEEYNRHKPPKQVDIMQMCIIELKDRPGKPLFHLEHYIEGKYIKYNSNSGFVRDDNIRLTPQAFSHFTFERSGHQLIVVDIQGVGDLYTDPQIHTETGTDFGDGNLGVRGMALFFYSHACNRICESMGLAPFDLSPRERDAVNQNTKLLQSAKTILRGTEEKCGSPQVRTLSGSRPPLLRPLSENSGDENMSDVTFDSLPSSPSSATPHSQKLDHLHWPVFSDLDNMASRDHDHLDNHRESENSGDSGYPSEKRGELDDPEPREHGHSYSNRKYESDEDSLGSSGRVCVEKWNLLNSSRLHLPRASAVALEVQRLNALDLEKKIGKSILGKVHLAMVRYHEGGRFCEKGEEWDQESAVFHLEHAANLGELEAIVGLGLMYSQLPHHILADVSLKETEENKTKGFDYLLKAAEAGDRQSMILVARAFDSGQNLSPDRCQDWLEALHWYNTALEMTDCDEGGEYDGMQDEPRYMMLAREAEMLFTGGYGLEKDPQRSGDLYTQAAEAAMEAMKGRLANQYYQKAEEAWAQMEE
The experiment in a line: Inhibition of eEF2K ATP labeling site in human Huh-7 cell lysate at 1 uM by KiNativ Profiling analysis relative to control. The format is subcellular.

In test [2] the target is T2, EKC/KEOPS complex subunit TP53RK (Homo sapiens) (UniProt Q96S44).
T2 sequence (whole entry): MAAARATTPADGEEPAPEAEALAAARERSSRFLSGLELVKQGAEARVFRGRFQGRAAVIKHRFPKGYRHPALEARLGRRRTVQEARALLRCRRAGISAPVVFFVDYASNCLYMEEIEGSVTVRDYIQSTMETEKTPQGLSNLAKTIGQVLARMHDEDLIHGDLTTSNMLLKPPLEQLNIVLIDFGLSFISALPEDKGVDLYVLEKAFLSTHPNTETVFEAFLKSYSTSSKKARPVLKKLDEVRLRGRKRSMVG
Nature of the test: Inhibition of PRPK ATP labeling site in human Huh-7 cell lysate at 1 uM by KiNativ Profiling analysis relative to control. The format is subcellular.

Test [3] addresses Cyclin-dependent kinase 2 (Homo sapiens) (UniProt P24941). Nature of the test: Inhibition of CDK2 Lys1 labeling site in human Huh-7 cells at 1 uM by KiNativ Profiling analysis relative to control. In kind it is cell-based.
Test [4] has as its target Ribosomal protein S6 kinase alpha-3 (Homo sapiens) (UniProt P51812). Nature of the test: Inhibition of RSK2 domain2 Protein Kinase Domain labeling site in human Huh-7 cell lysate at 1 uM by KiNativ Profiling analysis relative to control. In kind it is subcellular.
In test [5] the target is T3, Kinase suppressor of Ras 1 (Homo sapiens) (UniProt Q8IVT5).
T3 sequence (whole entry): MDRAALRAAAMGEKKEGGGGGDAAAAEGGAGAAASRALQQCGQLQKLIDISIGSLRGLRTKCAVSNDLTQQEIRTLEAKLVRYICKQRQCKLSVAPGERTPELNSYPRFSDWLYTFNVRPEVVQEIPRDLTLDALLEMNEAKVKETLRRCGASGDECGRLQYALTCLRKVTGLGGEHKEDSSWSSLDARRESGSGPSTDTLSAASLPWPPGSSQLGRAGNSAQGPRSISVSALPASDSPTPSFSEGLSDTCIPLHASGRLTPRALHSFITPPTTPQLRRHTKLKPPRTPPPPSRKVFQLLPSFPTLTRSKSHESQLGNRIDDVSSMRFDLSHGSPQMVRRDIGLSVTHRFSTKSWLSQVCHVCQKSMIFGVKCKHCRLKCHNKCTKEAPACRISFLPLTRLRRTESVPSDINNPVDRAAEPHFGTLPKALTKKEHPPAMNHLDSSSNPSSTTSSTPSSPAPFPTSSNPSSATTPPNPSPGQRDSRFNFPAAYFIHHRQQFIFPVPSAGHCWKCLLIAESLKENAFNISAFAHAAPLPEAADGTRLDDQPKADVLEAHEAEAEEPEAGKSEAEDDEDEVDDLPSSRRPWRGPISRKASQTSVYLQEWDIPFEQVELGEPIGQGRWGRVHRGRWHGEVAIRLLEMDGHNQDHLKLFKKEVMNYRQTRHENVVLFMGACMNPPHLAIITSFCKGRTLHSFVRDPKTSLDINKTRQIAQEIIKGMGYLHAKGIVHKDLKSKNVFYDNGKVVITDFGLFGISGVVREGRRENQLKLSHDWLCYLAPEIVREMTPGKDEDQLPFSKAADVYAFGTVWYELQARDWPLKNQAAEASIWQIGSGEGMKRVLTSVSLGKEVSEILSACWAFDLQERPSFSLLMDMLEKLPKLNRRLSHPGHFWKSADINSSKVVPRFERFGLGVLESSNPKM
The experiment in a line: Inhibition of KSR1 ACT labeling site harbouring SKNVFYDNGKVVITDFGLFGISGVVR in human A-375 cells at 5 uM by KiNativ Profiling analysis relative to control. The format is cell-based.

The target in test [6] is Leukocyte tyrosine kinase receptor (Homo sapiens) (UniProt P29376). The experiment in a line: Inhibition of LTK (unknown origin) at 10 uM by Ambit Kinomescan binding assay relative to control.
For test [7], the target named is Dual specificity protein kinase CLK3 (Homo sapiens) (UniProt P49761). Nature of the test: Inhibition of CLK3 (unknown origin) at 10 uM by Ambit Kinomescan binding assay.
For test [8], the target named is BMP-2-inducible protein kinase (Homo sapiens) (UniProt Q9NSY1). Nature of the test: Inhibition of BIKE (unknown origin) at 10 uM by Ambit Kinomescan binding assay.
Test [9] addresses Cyclin-dependent kinase 15 (Homo sapiens) (UniProt Q96Q40). The experiment in a line: Inhibition of PFTAIRE2 (unknown origin) at 10 uM by Ambit Kinomescan binding assay relative to control.
Test [10] has as its target T4, Dual specificity mitogen-activated protein kinase kinase 6 (Homo sapiens) (UniProt P52564).
T4 sequence (whole entry): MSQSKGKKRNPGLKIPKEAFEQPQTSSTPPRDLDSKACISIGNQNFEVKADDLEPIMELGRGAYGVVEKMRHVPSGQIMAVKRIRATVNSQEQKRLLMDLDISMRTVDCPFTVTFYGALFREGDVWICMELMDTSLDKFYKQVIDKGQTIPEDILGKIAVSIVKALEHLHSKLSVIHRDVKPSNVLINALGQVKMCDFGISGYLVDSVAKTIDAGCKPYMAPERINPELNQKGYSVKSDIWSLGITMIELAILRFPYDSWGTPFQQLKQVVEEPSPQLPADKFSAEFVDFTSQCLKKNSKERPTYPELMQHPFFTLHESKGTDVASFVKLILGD
Nature of the test: Inhibition of MAP2K6 Lys1 labeling site in human A-375 cells at 0.05 uM by KiNativ Profiling analysis relative to control. The format is cell-based.

Calls of active or inactive are those of the source. The rule behind the calls is not given here.

Ribosomal protein S6 kinase alpha-3 (Homo sapiens), sequence (P51812 whole entry, the tested form may be a part): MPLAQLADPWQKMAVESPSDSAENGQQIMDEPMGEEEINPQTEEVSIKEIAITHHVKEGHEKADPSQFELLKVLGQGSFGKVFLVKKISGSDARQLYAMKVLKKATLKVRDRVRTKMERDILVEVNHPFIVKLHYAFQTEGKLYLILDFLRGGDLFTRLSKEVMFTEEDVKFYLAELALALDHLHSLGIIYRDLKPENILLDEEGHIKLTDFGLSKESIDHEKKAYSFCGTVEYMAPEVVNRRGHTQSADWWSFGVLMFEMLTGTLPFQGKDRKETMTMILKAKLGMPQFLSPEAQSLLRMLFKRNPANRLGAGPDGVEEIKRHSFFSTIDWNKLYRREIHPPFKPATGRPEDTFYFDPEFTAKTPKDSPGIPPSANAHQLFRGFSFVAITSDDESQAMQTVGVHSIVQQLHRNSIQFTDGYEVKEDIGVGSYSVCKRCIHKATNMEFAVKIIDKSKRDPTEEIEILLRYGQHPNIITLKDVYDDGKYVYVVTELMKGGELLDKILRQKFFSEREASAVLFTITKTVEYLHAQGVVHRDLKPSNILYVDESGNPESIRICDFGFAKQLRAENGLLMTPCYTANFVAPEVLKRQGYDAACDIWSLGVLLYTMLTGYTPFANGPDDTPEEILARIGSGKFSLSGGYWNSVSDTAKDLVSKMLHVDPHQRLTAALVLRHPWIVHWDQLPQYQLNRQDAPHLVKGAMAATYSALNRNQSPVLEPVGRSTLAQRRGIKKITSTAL
BMP-2-inducible protein kinase (Homo sapiens), sequence (Q9NSY1 whole entry, looked up): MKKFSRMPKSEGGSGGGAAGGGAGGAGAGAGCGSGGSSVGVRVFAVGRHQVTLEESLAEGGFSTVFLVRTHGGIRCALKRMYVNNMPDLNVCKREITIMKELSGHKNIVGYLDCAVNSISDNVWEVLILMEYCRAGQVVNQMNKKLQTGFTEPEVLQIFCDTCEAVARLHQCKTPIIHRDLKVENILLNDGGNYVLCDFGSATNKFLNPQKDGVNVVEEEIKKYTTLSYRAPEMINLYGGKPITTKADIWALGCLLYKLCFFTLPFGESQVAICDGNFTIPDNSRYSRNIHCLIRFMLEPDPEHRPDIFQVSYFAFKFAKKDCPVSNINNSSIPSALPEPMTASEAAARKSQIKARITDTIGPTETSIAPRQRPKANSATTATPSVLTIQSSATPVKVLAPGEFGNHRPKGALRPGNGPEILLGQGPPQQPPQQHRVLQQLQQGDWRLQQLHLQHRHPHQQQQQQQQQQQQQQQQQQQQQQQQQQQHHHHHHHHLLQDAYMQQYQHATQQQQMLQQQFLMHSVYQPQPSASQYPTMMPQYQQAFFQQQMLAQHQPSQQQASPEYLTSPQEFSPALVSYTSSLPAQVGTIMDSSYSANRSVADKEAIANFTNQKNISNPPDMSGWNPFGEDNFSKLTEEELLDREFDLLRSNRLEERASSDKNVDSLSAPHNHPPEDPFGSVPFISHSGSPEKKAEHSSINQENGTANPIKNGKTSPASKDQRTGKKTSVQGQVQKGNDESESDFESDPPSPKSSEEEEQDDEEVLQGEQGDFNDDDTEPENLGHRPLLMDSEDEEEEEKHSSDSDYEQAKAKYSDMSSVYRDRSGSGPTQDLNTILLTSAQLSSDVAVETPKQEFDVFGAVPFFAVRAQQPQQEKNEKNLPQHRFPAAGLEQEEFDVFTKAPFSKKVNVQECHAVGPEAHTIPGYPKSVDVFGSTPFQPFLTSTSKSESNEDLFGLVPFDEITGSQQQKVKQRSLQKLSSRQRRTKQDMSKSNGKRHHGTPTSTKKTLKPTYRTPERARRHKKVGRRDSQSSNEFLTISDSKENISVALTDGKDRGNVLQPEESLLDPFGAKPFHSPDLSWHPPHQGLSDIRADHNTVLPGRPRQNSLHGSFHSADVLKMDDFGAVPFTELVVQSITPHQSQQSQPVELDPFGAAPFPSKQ
Dual specificity protein kinase CLK3 (Homo sapiens), sequence (P49761 whole entry, looked up): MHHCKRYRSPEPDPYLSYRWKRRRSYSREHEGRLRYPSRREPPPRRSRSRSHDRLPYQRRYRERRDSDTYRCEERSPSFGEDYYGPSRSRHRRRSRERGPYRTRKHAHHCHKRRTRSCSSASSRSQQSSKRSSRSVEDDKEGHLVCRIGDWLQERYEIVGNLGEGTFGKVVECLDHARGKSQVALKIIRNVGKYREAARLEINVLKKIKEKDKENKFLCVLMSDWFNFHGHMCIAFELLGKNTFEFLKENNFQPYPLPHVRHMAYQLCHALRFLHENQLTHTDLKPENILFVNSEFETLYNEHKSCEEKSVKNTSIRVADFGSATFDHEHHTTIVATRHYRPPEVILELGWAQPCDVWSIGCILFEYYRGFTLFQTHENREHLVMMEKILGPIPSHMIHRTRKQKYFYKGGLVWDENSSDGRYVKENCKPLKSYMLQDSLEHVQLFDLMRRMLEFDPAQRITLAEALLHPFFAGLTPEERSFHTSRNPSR
Cyclin-dependent kinase 15 (Homo sapiens), sequence (Q96Q40 whole entry): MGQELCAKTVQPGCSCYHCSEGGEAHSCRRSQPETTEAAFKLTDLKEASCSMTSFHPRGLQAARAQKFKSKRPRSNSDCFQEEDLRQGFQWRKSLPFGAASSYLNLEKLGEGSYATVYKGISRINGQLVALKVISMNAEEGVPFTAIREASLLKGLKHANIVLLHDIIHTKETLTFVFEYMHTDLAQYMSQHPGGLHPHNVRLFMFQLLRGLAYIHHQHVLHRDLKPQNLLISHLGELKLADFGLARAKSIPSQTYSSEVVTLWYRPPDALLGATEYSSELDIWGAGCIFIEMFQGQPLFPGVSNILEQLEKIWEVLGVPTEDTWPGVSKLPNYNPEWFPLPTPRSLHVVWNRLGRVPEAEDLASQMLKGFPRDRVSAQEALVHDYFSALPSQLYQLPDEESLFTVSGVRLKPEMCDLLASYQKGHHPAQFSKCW
Leukocyte tyrosine kinase receptor (Homo sapiens), sequence (P29376 whole entry): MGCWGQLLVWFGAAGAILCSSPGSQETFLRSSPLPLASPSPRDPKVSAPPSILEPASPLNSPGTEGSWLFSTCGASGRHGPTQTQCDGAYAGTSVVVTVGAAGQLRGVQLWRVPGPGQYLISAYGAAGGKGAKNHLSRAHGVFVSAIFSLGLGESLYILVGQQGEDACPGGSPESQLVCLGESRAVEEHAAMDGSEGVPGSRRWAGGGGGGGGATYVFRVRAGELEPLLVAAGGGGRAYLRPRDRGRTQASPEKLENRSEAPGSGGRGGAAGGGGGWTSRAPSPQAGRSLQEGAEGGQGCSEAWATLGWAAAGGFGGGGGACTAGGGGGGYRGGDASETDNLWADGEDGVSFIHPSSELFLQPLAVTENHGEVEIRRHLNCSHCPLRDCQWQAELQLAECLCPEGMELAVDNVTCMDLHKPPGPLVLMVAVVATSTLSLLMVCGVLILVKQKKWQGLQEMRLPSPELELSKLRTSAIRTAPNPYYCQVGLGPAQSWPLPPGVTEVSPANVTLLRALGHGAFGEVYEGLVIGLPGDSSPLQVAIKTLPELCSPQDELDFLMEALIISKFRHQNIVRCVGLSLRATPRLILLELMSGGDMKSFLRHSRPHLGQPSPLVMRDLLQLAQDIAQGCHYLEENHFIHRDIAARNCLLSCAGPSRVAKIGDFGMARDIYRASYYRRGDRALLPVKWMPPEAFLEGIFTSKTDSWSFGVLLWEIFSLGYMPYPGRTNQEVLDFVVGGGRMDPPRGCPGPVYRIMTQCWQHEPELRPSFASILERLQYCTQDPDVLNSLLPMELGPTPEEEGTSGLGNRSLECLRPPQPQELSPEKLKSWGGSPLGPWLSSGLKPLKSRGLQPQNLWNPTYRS

For orientation: inhibition means the change of the read-out against control, counted positive when it falls. As for `CNc1cc(Oc2cc(C(=O)Nc3cc(N4CCN(C)CC4)cc(C(F)(F)F)c3)ccc2C)ncn1`, the inhibition in test [1] is -3.5%; in test [2] it was -6%; in test [3] it was -5.7%; in test [4] it was 5.9%.
For `CCN1CCN(Cc2ccc(NC(=O)c3ccc(C)c(/C=C/c4cnc5[nH]ccc5c4OC)c3)cc2C(F)(F)F)CC1`, the inhibition in test [5] turned out to be 1.7%.
In the case of `CCN1CCN(Cc2ccc(NC(=O)c3ccc(C)c(Oc4ccnc5[nH]ccc45)c3)cc2C(F)(F)F)CC1`, the results for the inhibition in test [6], in [9] and in [10] were 1.2%, 6% and 4%, respectively. In addition, the inhibition entry in test [7] and in test [8] was “inactive” in each case.
